In ChEMBL document CHEMBL1134204, “Carbonic anhydrase inhibitors: synthesis of sulfonamides incorporating dtpa tails and of their zinc complexes with powerful topical antiglaucoma properties” (Bioorg Med Chem Lett, 2001):

How the values were obtained:
[1] = biological target: Carbonic anhydrase 1 (Homo sapiens, UniProt P00915)
[2] = biological target: Carbonic anhydrase 4 (Homo sapiens, UniProt P22748)
[3] = tested on: Oryctolagus cuniculus; assay: In vivo activity in normotensive rabbits (23.5+/-2.6 mmHg) for the intraocular pressure (IOP) lowering 30 min after topical administration with one drop of Carbonic anhydrase inhibitor at a pH 7; format: functional, Eye
[4] = tested on: Oryctolagus cuniculus; assay: In vivo activity in normotensive rabbits (23.5+/-2.6 mmHg) for the intraocular pressure (IOP) lowering 60 min after topical administration with one drop of Carbonic anhydrase inhibitor at a pH 7; format: functional, Eye
[5] = tested on: Oryctolagus cuniculus; assay: In vivo activity in normotensive rabbits (23.5+/-2.6 mmHg) for the intraocular pressure (IOP) lowering 90 min after topical administration with one drop of Carbonic anhydrase inhibitor at a pH 7; format: functional, Eye
[6] = tested on: Oryctolagus cuniculus; assay: In vivo activity in glaucomatous rabbits (33.5+/-3.0 mmHg) for the intraocular pressure (IOP) lowering 30 min after topical administration with one drop of Carbonic anhydrase at a pH 7.0; format: functional, Eye
[7] = tested on: Oryctolagus cuniculus; assay: In vivo activity in glaucomatous rabbits (33.5+/-3.0 mmHg) for the intraocular pressure (IOP) lowering 90 min after topical administration with one drop of Carbonic anhydrase at a pH 7.0; format: functional, Eye
[8] = octanol/water
[9] = not given; remark: listed apart in the source

Carbonic anhydrase 4, sequence (P22748 whole entry): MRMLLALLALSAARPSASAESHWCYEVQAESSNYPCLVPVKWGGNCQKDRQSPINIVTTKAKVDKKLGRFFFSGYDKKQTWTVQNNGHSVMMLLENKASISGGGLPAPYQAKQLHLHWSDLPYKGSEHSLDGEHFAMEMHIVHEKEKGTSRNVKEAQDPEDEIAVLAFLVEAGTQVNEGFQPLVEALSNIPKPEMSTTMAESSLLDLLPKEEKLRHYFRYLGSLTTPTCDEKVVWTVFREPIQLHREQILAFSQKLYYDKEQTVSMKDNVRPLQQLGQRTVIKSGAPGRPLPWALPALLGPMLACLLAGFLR
Carbonic anhydrase 1, sequence (P00915 whole entry): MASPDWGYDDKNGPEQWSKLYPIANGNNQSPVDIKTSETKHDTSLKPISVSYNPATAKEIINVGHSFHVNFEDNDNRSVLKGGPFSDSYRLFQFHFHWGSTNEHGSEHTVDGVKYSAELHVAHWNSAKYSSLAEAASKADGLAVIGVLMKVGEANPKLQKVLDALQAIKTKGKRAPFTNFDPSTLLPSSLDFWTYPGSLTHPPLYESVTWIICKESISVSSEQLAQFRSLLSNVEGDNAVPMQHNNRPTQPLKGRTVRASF

| Structure (SMILES) | Ki [1] [µM] | Ki [2] [µM] | also measured |
| --- | --- | --- | --- |
| NS(=O)(=O)c1ccc(NC(=O)CN(CCN(CCN(CC(=O)O)CC(=O)O)CC(=O)O)CC(=O)O)c(I)c1 | 0.079 | 0.029 | – |
| Cn1nc(S(N)(=O)=O)s/c1=N\C(=O)CN(CCN(CCN(CC(=O)O)CC(=O)/N=c1/sc(S(N)(=O)=O)nn1C)CC(=O)O)CC(=O)O [listing 1 of 2 here] | 0.043 | 0.005 | – |
| NS(=O)(=O)c1ccc(NC(=O)CN(CCN(CCN(CC(=O)O)CC(=O)Nc2ccc(S(N)(=O)=O)cc2)CC(=O)O)CC(=O)O)cc1 [listing 1 of 2 here] | – | 0.156 | Change in IOP [3]: 4.4 mmHg; Change in IOP [4]: 7.5 mmHg; Change in IOP [5]: 9.5 mmHg; Change in IOP [6]: 6 mmHg; Change in IOP [7]: 11 mmHg; Kin: 6.5 h⁻¹; logD [8]: 1.456; Kin [9]: 3.6 h⁻¹ |
| NS(=O)(=O)c1nc2ccc(NC(=O)CN(CCN(CCN(CC(=O)O)CC(=O)O)CC(=O)O)CC(=O)O)cc2s1 | 0.036 | 0.009 | – |
| NS(=O)(=O)c1ccc(COC(=O)CN(CCN(CCN(CC(=O)O)CC(=O)OCc2ccc(S(N)(=O)=O)cc2)CC(=O)O)CC(=O)O)cc1 | 0.325 | 0.17 | – |
| NS(=O)(=O)c1cccc(NC(=O)CN(CCN(CCN(CC(=O)O)CC(=O)Nc2cccc(S(N)(=O)=O)c2)CC(=O)O)CC(=O)O)c1 | – | 0.425 | – |
| NS(=O)(=O)c1cc(S(N)(=O)=O)c(NC(=O)CN(CCN(CCN(CC(=O)O)CC(=O)Nc2cc(Cl)c(S(N)(=O)=O)cc2S(N)(=O)=O)CC(=O)O)CC(=O)O)cc1Cl | 0.063 | 0.041 | – |
| NS(=O)(=O)c1nc2ccc(NC(=O)CN(CCN(CCN(CC(=O)O)CC(=O)Nc3ccc4nc(S(N)(=O)=O)sc4c3)CC(=O)O)CC(=O)O)cc2s1 | 0.025 | 0.006 | – |
| NS(=O)(=O)c1cc(S(N)(=O)=O)c(NC(=O)CN(CCN(CCN(CC(=O)O)CC(=O)O)CC(=O)O)CC(=O)O)c(Cl)c1Cl | 0.058 | 0.036 | – |
| NS(=O)(=O)c1ccccc1NC(=O)CN(CCN(CCN(CC(=O)O)CC(=O)Nc1ccccc1S(N)(=O)=O)CC(=O)O)CC(=O)O | 5.4 | 0.33 | – |
| NS(=O)(=O)c1ccc(CCNC(=O)CN(CCN(CCN(CC(=O)O)CC(=O)NCCc2ccc(S(N)(=O)=O)cc2)CC(=O)O)CC(=O)O)cc1 [listing 1 of 2 here] | – | 0.025 | – |
| NS(=O)(=O)c1ccc(NC(=O)CN(CCN(CCN(CC(=O)O)CC(=O)Nc2ccc(S(N)(=O)=O)cc2Br)CC(=O)O)CC(=O)O)c(Br)c1 | 0.079 | 0.021 | – |
| NS(=O)(=O)c1nc2ccc(OC(=O)CN(CCN(CCN(CC(=O)O)CC(=O)Oc3ccc4nc(S(N)(=O)=O)sc4c3)CC(=O)O)CC(=O)O)cc2s1 | 0.021 | 0.005 | – |
| NS(=O)(=O)c1ccc(CCOC(=O)CN(CCN(CCN(CC(=O)O)CC(=O)O)CC(=O)O)CC(=O)O)cc1 | 0.36 | 0.19 | – |
| Nc1ccc(S(N)(=O)=O)cc1Br | – | 0.066 | – |
| NS(=O)(=O)c1ccc(NC(=O)CN(CCN(CCN(CC(=O)O)CC(=O)O)CC(=O)O)CC(=O)O)c(Cl)c1 | 0.2 | 0.032 | – |
| NS(=O)(=O)c1ccc(NC(=O)CN(CCN(CCN(CC(=O)O)CC(=O)Nc2ccc(S(N)(=O)=O)cc2I)CC(=O)O)CC(=O)O)c(I)c1 | 0.07 | 0.024 | – |
| Nc1ccc2nc(S(N)(=O)=O)sc2c1 | – | 0.019 | – |
| NS(=O)(=O)c1ccc(NC(=O)CN(CCN(CCN(CC(=O)O)CC(=O)O)CC(=O)O)CC(=O)O)c(F)c1 | 0.18 | 0.029 | – |
| Nc1ccc(S(N)(=O)=O)cc1 [SULFANILAMIDE] | – | 3 | – |
| NS(=O)(=O)c1ccc(NC(=O)CN(CCN(CCN(CC(=O)O)CC(=O)Nc2ccc(S(N)(=O)=O)cc2)CC(=O)O)CC(=O)O)cc1 [listing 2 of 2 here] | – | 0.1 | – |
| Cn1nc(S(N)(=O)=O)s/c1=N/C(=O)CN(CCN(CCN(CC(=O)O)CC(=O)O)CC(=O)O)CC(=O)O | 0.062 | 0.019 | – |
| NS(=O)(=O)c1nc2ccc(OCCOC(=O)CN(CCN(CCN(CC(=O)O)CC(=O)O)CC(=O)O)CC(=O)O)cc2s1 | 0.03 | 0.005 | – |
| NS(=O)(=O)c1nc2ccc(OCCOC(=O)CN(CCN(CCN(CC(=O)O)CC(=O)OCCOc3ccc4nc(S(N)(=O)=O)sc4c3)CC(=O)O)CC(=O)O)cc2s1 | 0.016 | 0.004 | – |
| NS(=O)(=O)c1cc(S(N)(=O)=O)c(NC(=O)CN(CCN(CCN(CC(=O)O)CC(=O)Nc2c(S(N)(=O)=O)cc(S(N)(=O)=O)c(Cl)c2Cl)CC(=O)O)CC(=O)O)c(Cl)c1Cl | 0.043 | 0.025 | – |
| NS(=O)(=O)c1cccc(NC(=O)CN(CCN(CCN(CC(=O)O)CC(=O)O)CC(=O)O)CC(=O)O)c1 | 7.2 | 0.5 | – |
| Nc1ccc(S(N)(=O)=O)cc1F | – | 0.18 | – |

| Structure (SMILES) | Ki [1] [µM] | Ki [2] [µM] | also measured |
| --- | --- | --- | --- |
| NS(=O)(=O)c1nnc(NC(=O)CCNC(=O)CN(CCN(CCN(CC(=O)O)CC(=O)O)CC(=O)O)CC(=O)O)s1 | 0.11 | 0.016 | – |
| NS(=O)(=O)c1ccc(CCNC(=O)CN(CCN(CCN(CC(=O)O)CC(=O)NCCc2ccc(S(N)(=O)=O)cc2)CC(=O)O)CC(=O)O)cc1 [listing 2 of 2 here] | – | 0.016 | – |
| NCCC(=O)Nc1nnc(S(N)(=O)=O)s1 | – | 0.125 | – |
| NS(=O)(=O)c1ccc(CCO)cc1 | – | 0.45 | – |
| NS(=O)(=O)c1ccc(CCNC(=O)CN(CCN(CCN(CC(=O)O)CC(=O)O)CC(=O)O)CC(=O)O)cc1 | 0.29 | 0.036 | – |
| NS(=O)(=O)c1ccccc1NC(=O)CN(CCN(CCN(CC(=O)O)CC(=O)O)CC(=O)O)CC(=O)O | 8.6 | 0.55 | – |
| NS(=O)(=O)c1nc2ccc(OCCO)cc2s1 | – | 0.015 | – |
| Nc1c(S(N)(=O)=O)cc(S(N)(=O)=O)c(Cl)c1Cl | – | 0.175 | – |
| NS(=O)(=O)c1ccc(CCOC(=O)CN(CCN(CCN(CC(=O)O)CC(=O)OCCc2ccc(S(N)(=O)=O)cc2)CC(=O)O)CC(=O)O)cc1 | 0.29 | 0.115 | – |
| NS(=O)(=O)c1ccc(NNC(=O)CN(CCN(CCN(CC(=O)O)CC(=O)O)CC(=O)O)CC(=O)O)cc1 | 12 | 0.63 | – |
| NNc1ccc(S(N)(=O)=O)cc1 | – | 3.2 | – |
| Cn1nc(S(N)(=O)=O)s/c1=N\C(=O)CN(CCN(CCN(CC(=O)O)CC(=O)/N=c1/sc(S(N)(=O)=O)nn1C)CC(=O)O)CC(=O)O [listing 2 of 2 here] | 0.054 | 0.009 | – |
| NS(=O)(=O)c1nc2ccc(OC(=O)CN(CCN(CCN(CC(=O)O)CC(=O)O)CC(=O)O)CC(=O)O)cc2s1 | 0.032 | 0.006 | – |
| NS(=O)(=O)c1ccc(COC(=O)CN(CCN(CCN(CC(=O)O)CC(=O)O)CC(=O)O)CC(=O)O)cc1 | 0.51 | 0.265 | – |
| NS(=O)(=O)c1ccc(CNC(=O)CN(CCN(CCN(CC(=O)O)CC(=O)O)CC(=O)O)CC(=O)O)cc1 | 0.55 | 0.04 | – |
| NS(=O)(=O)c1ccc(NC(=O)CN(CCN(CCN(CC(=O)O)CC(=O)O)CC(=O)O)CC(=O)O)c(Br)c1 | 0.096 | 0.027 | – |
| NS(=O)(=O)c1ccc(NNC(=O)CN(CCN(CCN(CC(=O)O)CC(=O)NNc2ccc(S(N)(=O)=O)cc2)CC(=O)O)CC(=O)O)cc1 | 9.8 | 0.43 | – |
| Nc1ccccc1S(N)(=O)=O | – | 1.31 | – |
| NS(=O)(=O)c1ccc(NC(=O)CN(CCN(CCN(CC(=O)O)CC(=O)Nc2ccc(S(N)(=O)=O)cc2Cl)CC(=O)O)CC(=O)O)c(Cl)c1 | 0.155 | 0.027 | – |
| NS(=O)(=O)c1cc(S(N)(=O)=O)c(NC(=O)CN(CCN(CCN(CC(=O)O)CC(=O)O)CC(=O)O)CC(=O)O)cc1Cl | 0.087 | 0.052 | – |
| NS(=O)(=O)c1ccc(CNC(=O)CN(CCN(CCN(CC(=O)O)CC(=O)NCc2ccc(S(N)(=O)=O)cc2)CC(=O)O)CC(=O)O)cc1 [listing 1 of 2 here] | – | 0.037 | – |
| NS(=O)(=O)c1ccc(NC(=O)CN(CCN(CCN(CC(=O)O)CC(=O)Nc2ccc(S(N)(=O)=O)cc2F)CC(=O)O)CC(=O)O)c(F)c1 | 0.135 | 0.018 | – |
| Nc1ccc(S(N)(=O)=O)cc1I | – | 0.125 | – |
| NS(=O)(=O)c1nnc(NC(=O)CCNC(=O)CN(CCN(CCN(CC(=O)O)CC(=O)NCCC(=O)Nc2nnc(S(N)(=O)=O)s2)CC(=O)O)CC(=O)O)s1 | 0.102 | 0.008 | – |
| NS(=O)(=O)c1nnc(NC(=O)CN(CCN(CCN(CC(=O)O)CC(=O)Nc2nnc(S(N)(=O)=O)s2)CC(=O)O)CC(=O)O)s1 | – | 0.007 | Kin: 6.2 h⁻¹; logD [8]: 1.961; Kin [9]: 3.9 h⁻¹ |
| NS(=O)(=O)c1ccc(CNC(=O)CN(CCN(CCN(CC(=O)O)CC(=O)NCc2ccc(S(N)(=O)=O)cc2)CC(=O)O)CC(=O)O)cc1 [listing 2 of 2 here] | – | 0.021 | – |
